# Reference: patent US6737383B1, “Herbicidal oxadiazolidines” (priority 1999, dated 2004)
# Key:
# bedstraw = assay: Test B pre/postemergence bedstraw; format: in vivo, Galium aparine
# In short: (§1)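 Response is a visual 0-to-10 score relative to untreated plants, where 0 means no effect and 10 means complete control, taken twelve to sixteen days after application. Treatments went onto soil at planting and onto foliage of 1- to 4-leaf plants, using a surfactant-containing non-phytotoxic solvent.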
# giant foxtail = assay: Test B pre/postemergence giant foxtail; format: in vivo, Setaria faberii
# In short: as §1
# wheat = assay: Test B pre/postemergence wheat; format: in vivo, Triticum aestivum
# In short: as §1
# sugar beet = assay: Test B pre/postemergence sugar beet; format: in vivo, Beta vulgaris
# In short: as §1
# blackgrass = assay: Test B pre/postemergence blackgrass; format: in vivo, Alopecurus myosuroides
# In short: as §1
# surinam grass = assay: Test B pre/postemergence surinam grass; format: in vivo, Brachiaria decumbens
# In short: as §1
# morningglory = assay: Test B pre/postemergence morningglory; format: in vivo, Ipomoea hederacea
# In short: as §1
# velvetleaf = assay: Test B pre/postemergence velvetleaf; format: in vivo, Abutilon theophrasti
# In short: as §1
# rape = assay: Test B pre/postemergence rape; format: in vivo, Brassica napus
# In short: as §1
# wild oat = assay: Test B pre/postemergence wild oat; format: in vivo, Avena fatua
# In short: as §1
# purple nutsedge = assay: Test B pre/postemergence purple nutsedge; format: in vivo, Cyperus rotundus
# In short: as §1
# soybean = assay: Test B pre/postemergence soybean; format: in vivo, Glycine max
# In short: as §1
# pigweed = assay: Test B pre/postemergence pigweed; format: in vivo, Amaranthus retroflexus
# In short: as §1
# crabgrass = assay: Test B pre/postemergence crabgrass; format: in vivo, Digitaria sanguinalis
# In short: as §1
# cocklebur = assay: Test B pre/postemergence cocklebur; format: in vivo, Xanthium strumarium
# In short: as §1
# corn = assay: Test B pre/postemergence corn; format: in vivo, Zea mays
# In short: as §1
# [1] = Postemergence, Rate 62 g/ha, scale of 0 to 10, 0 is no effect, 10 is complete control
# [2] = Preemergence, Rate 62 g/ha, scale 0 to 10 (0 no effect, 10 complete control)
# [3] = Preemergence, Rate 125 g/ha, scale 0 to 10, 0 is no effect, 10 is complete control
# [4] = Preemergence, Rate 500 g/ha, scale of 0 to 10 where 0 is no effect and 10 is complete control
# [5] = Rate 250 g/ha, Postemergence, scale of 0 to 10 where 0 is no effect and 10 is complete control
# [6] = Postemergence, Rate 125 g/ha, scale 0 to 10, 0 is no effect, 10 is complete control
# [7] = Postemergence, Rate 500 g/ha, scale of 0 to 10 where 0 is no effect and 10 is complete control
compound,measurement,setting,value
CCCCCn1c(=O)on(C(=O)N(c2ccccc2)C(C)C)c1=O [Compound 557],Bedstraw plant response rating,bedstraw; [1],0
same,Bedstraw plant response rating,bedstraw; [2],0
same,Bedstraw plant response rating,bedstraw; [3],0
same,Bedstraw plant response rating (0 to 10 scale),"bedstraw; Preemergence, Rate 250 g/ha",0
same,Bedstraw plant response rating,bedstraw; [4],0
same,"Plant response rating, Bedstraw",bedstraw; [5],0
same,Giant foxtail plant response rating,giant foxtail; [1],0
same,Giant foxtail plant response rating,giant foxtail; [6],6
same,"Plant response rating, Giant foxtail",giant foxtail; [7],6
same,Giant foxtail plant response rating,giant foxtail; [2],9
same,Giant foxtail plant response rating,giant foxtail; [3],9
same,Giant foxtail plant response rating (0 to 10 scale),"giant foxtail; Preemergence, Rate 250 g/ha",10
same,Giant foxtail plant response rating,giant foxtail; [4],10
same,"Plant response rating, Giant foxtail",giant foxtail; [5],6
same,Wheat plant response rating,wheat; [1],0
same,"Plant response rating, Wheat",wheat; [7],0
same,Wheat plant response rating,wheat; [2],0
same,Wheat plant response rating,wheat; [3],0
same,Wheat plant response rating (0 to 10 scale),"wheat; Preemergence, Rate 250 g/ha",0
same,Wheat plant response rating,wheat; [4],3
same,"Plant response rating, Wheat",wheat; [5],0
same,Sugarbeets plant response rating,sugar beet; [1],0
same,"Plant response rating, Sugarbeets",sugar beet; [7],0
same,Sugarbeets plant response rating,sugar beet; [2],2
same,Sugarbeets plant response rating,sugar beet; [3],3
same,Sugarbeets plant response rating (0 to 10 scale),"sugar beet; Preemergence, Rate 250 g/ha",3
same,Sugarbeets plant response rating,sugar beet; [4],4
same,"Plant response rating, Sugarbeets",sugar beet; [5],0
same,Blackgrass plant response rating,blackgrass; [1],0
same,Blackgrass plant response rating,blackgrass; [6],0
same,"Plant response rating, Blackgrass",blackgrass; [7],0
same,Blackgrass plant response rating,blackgrass; [2],6
same,Blackgrass plant response rating,blackgrass; [3],6
same,Blackgrass plant response rating (0 to 10 scale),"blackgrass; Preemergence, Rate 250 g/ha",8
same,Blackgrass plant response rating,blackgrass; [4],8
same,"Plant response rating, Blackgrass",blackgrass; [5],0
same,B. signalgrass plant response rating,surinam grass; [1],0
same,B. signalgrass plant response rating,surinam grass; [6],2
same,"Plant response rating, B. signalgrass",surinam grass; [7],2
same,B. signalgrass plant response rating,surinam grass; [2],4
same,B. signalgrass plant response rating,surinam grass; [3],6
same,"B. signalgrass plant response rating (0 to 10 scale, 0 is no effect, 10 is complete control)","surinam grass; Preemergence, Rate 250 g/ha",7
same,B. signalgrass plant response rating,surinam grass; [4],7
same,"Plant response rating, B. signalgrass",surinam grass; [5],2
same,Morningglory plant response rating,morningglory; [1],5
same,Morningglory plant response rating,morningglory; [6],8
same,"Plant response rating, Morningglory",morningglory; [7],8
same,Morningglory plant response rating,morningglory; [2],0
same,Morningglory plant response rating,morningglory; [3],0
same,Morningglory plant response rating (0 to 10 scale),"morningglory; Preemergence, Rate 250 g/ha",0
same,Morningglory plant response rating,morningglory; [4],0
same,Velvetleaf plant response rating,velvetleaf; [1],0
same,"Plant response rating, Velvetleaf",velvetleaf; [7],2
same,Velvetleaf plant response rating,velvetleaf; [2],0
same,Velvetleaf plant response rating,velvetleaf; [3],0
same,Velvetleaf plant response rating (0 to 10 scale),"velvetleaf; Preemergence, Rate 250 g/ha",0
same,Velvetleaf plant response rating,velvetleaf; [4],0
same,"Plant response rating, Velvetleaf",velvetleaf; [5],0
same,Rape plant response rating,rape; [1],0
same,Rape plant response rating,rape; [6],0
same,"Plant response rating, Rape",rape; [7],0
same,Rape plant response rating,rape; [2],0
same,Rape plant response rating,rape; [3],0
same,Rape plant response rating (0 to 10 scale),"rape; Preemergence, Rate 250 g/ha",0
same,Rape plant response rating,rape; [4],2
same,"Plant response rating, Rape",rape; [5],0
same,Wild oats plant response rating,wild oat; [1],0
same,"Plant response rating, Wild oats",wild oat; [7],0
same,Wild oats plant response rating,wild oat; [2],0
same,Wild oats plant response rating,wild oat; [3],2
same,Wild oats plant response rating (0 to 10 scale),"wild oat; Preemergence, Rate 250 g/ha",0
same,Wild oats plant response rating,wild oat; [4],7
same,"Plant response rating, Wild oats",wild oat; [5],0
same,Nutsedge plant response rating,purple nutsedge; [1],0
same,Nutsedge plant response rating,purple nutsedge; [6],0
same,"Plant response rating, Nutsedge",purple nutsedge; [7],0
same,Nutsedge plant response rating,purple nutsedge; [2],0
same,Nutsedge plant response rating,purple nutsedge; [3],0
same,Nutsedge plant response rating (0 to 10 scale),"purple nutsedge; Preemergence, Rate 250 g/ha",0
same,Nutsedge plant response rating,purple nutsedge; [4],0
same,"Plant response rating, Nutsedge",purple nutsedge; [5],0
same,Soybean plant response rating,soybean; [1],0
same,"Plant response rating, Soybean",soybean; [7],2
same,Soybean plant response rating,soybean; [2],0
same,Soybean plant response rating,soybean; [3],0
same,Soybean plant response rating (0 to 10 scale),"soybean; Preemergence, Rate 250 g/ha",0
same,Soybean plant response rating,soybean; [4],0
same,"Plant response rating, Soybean",soybean; [5],0
same,Redroot pigweed plant response rating,pigweed; [1],0
same,"Plant response rating, Redroot pigweed",pigweed; [7],0
same,Redroot pigweed plant response rating,pigweed; [2],0
same,Redroot pigweed plant response rating,pigweed; [3],0
same,Redroot pigweed plant response rating (0 to 10 scale),"pigweed; Preemergence, Rate 250 g/ha",3
same,Redroot pigweed plant response rating,pigweed; [4],6
same,"Plant response rating, Redroot pigweed",pigweed; [5],0
same,Crabgrass plant response rating,crabgrass; [1],0
same,Crabgrass plant response rating,crabgrass; [6],5
same,"Plant response rating, Crabgrass",crabgrass; [7],4
same,Crabgrass plant response rating,crabgrass; [2],9
same,Crabgrass plant response rating,crabgrass; [3],9
same,Crabgrass plant response rating (0 to 10 scale),"crabgrass; Preemergence, Rate 250 g/ha",10
same,Crabgrass plant response rating,crabgrass; [4],10
same,"Plant response rating, Crabgrass",crabgrass; [5],4
same,Cocklebur plant response rating,cocklebur; [1],0
same,Cocklebur plant response rating,cocklebur; [6],0
same,"Plant response rating, Cocklebur",cocklebur; [7],0
same,Cocklebur plant response rating,cocklebur; [2],0
same,Cocklebur plant response rating,cocklebur; [3],0
same,Cocklebur plant response rating (0 to 10 scale),"cocklebur; Preemergence, Rate 250 g/ha",0
same,Cocklebur plant response rating,cocklebur; [4],0
same,"Plant response rating, Cocklebur",cocklebur; [5],0
same,Corn plant response rating,corn; [1],0
same,Corn plant response rating,corn; [6],0
same,"Plant response rating, Corn",corn; [7],2
same,Corn plant response rating,corn; [2],0
same,Corn plant response rating,corn; [3],0
same,Corn plant response rating (0 to 10 scale),"corn; Preemergence, Rate 250 g/ha",0
same,Corn plant response rating,corn; [4],0
same,"Plant response rating, Corn",corn; [5],0
